Reference: patent publication US5486508A, “Cyclodextrin composition” (TAKEDA Chemical Industries Ltd., priority 1991, dated 1996)
In brackets after ≈: the same amount, converted by molar mass. Like-named read-outs stand apart in the source and are kept apart here.

Key:
[1] = water
Method: (§1) The aqueous solution was added to the above ethyl alcohol solution with stirring. The solution thus obtained was lyophilized to obtain a powder.
(§2) After 4 hours, the mixture was filtered through a filter having pore size of 0.22 μm.

[2] = Stability of powders at 40° C. for 2 weeks (residual amount of Compound A by HPLC); assay type: physicochemical; conditions: powder storage, 336 h
Method: The residual amounts of Compound A was determined by HPLC.

[3] = water; remark: listed apart in the source
Method: as §1, §2

[4] = Solubility of diazepam or clofibrate complex with G2 βCD versus drug alone
From the text: The solubility of the complex was compared with that of the drug alone.

| Structure (SMILES) | Comparison of solubilities (solubility concentration of Compound A) [1] | Stability, Residual rate [2] | Comparison of solubilities (solubility concentration of Compound A) [3] | solubility [4] |
| --- | --- | --- | --- | --- |
| CO[C@@H]1[C@H](OC(=O)NC(=O)CCl)CC[C@]2(CO2)[C@H]1[C@@]1(C)O[C@@H]1CC=C(C)C [Compound A, 6-O-(N-chloroacetylcarbamoyl)fumagillol] | 1700 µg/mL | 81.4% | 1700 µg/mL | – |
| CCOC(=O)C(C)(C)Oc1ccc(Cl)cc1 [Clofibrate, clofibrate] | – | – | – | 36 µg/mL (≈ 148 µM) |
